{"source": "patent US8551963B2", "about": "“Imidazolothiazole compounds and methods of use thereof” (Ambit Biosciences Corporation, priority 2008, dated 2013)", "key": {"CYP3A4 [1]": {"biological_target": "T1, CYP3A4 (Homo sapiens (Human), UniProt P08684)", "T1 sequence (P08684 whole entry, canonical isoform)": "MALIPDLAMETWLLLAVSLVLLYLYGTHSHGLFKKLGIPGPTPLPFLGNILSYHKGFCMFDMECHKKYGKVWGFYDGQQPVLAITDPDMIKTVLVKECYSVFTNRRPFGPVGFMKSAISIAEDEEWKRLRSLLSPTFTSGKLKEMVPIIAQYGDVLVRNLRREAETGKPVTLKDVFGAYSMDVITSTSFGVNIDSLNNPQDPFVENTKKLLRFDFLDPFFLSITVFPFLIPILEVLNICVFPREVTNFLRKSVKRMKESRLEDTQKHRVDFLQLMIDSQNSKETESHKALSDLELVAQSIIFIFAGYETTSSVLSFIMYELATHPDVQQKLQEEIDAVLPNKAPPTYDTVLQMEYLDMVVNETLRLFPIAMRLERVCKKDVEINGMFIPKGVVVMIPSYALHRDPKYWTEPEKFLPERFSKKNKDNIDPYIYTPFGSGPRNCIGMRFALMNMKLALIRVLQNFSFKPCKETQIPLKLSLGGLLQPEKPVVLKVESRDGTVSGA", "assay": "Time dependant inhibition in human liver microsomes, CYP3A4", "type": "in vitro ADME", "conditions": "CYP3A4, 10 μM, pre-incubation 0-30 minutes", "description": "For each CYP isoform tested, 10 μM Compound I-1 was pre-incubated with pooled male and female human liver microsomes with NADPH in a 37° C. shaking water bath in duplicate to afford a final pre-incubation assay concentration of 100 mM KPO4/pH 7.4, 10 mM MgCl2, 2 mg/mL of human liver microsome (CellzDirect lot HLM HMMC-PL020) and 1 mM NADPH (Calbiochem). At each pre-incubation time point (0, 5, 10, 20, and 30 minutes) 20 μL was removed and placed in a second 96 well plate on ice. After all pre-incubation time points were collected 180 uL of additional human microsome liver preparation containing the appropriate CYP specific substrate at its Km concentration listed in Table 11 plus NADPH, was added to each time point. The samples were incubated for an additional 10 minutes in a 37° C. shaking water bath and then quenched with 75:25 acetonitrile (ACN):water containing the appropriate internal standards listed in Table 11. After brief mixing, the plate was centrifuged and the supernatant removed for analysis by LC/MS/MS (API 4000 Qtrap) for the formation of 6-hydroxy-testosterone (CYP3A4), 4-hydroxy-mephenyloin (CYP2C19), or 6-hydroxy-taxol (CYP2C8). […] Consistent with Example 5, Compound I-1 did inhibit CYP2C8-mediated metabolite formation at 10 μM, but not in a time dependent manner."}, "FLT3 (K663Q)": {"biological_target": "FLT3 (K663Q) (Homo sapiens (Human), UniProt P36888, K663Q)", "assay": "biochemical", "type": "binding", "protocol": "Competition binding assays used herein were developed, validated and performed as described in Fabian et al., Nature Biotechnology 2005, 23, 329-336. Kinases were produced as fusions to T7 phage (See, Fabian et al. or WO04/015142) or alternatively, the kinases were expressed in HEK-293 cells and subsequently tagged with DNA for PCR detection (See, WO08/005,310). […] The liganded beads were blocked with excess biotin and washed with blocking buffer (SeaBlock (Pierce), 1% BSA, 0.05% Tween 20, 1 mM DTT) to remove unbound ligand and to reduce non-specific binding. […] Test compounds were prepared as 100× stocks in DMSO and rapidly diluted into the aqueous environment. DMSO was added to control assays lacking a test compound. […] The kinase concentration in the eluates was measured by quantitative PCR. Each kinase was tested individually against each compound. Kds were determined using eleven serial threefold dilutions."}, "FLT3 (N841I)": {"biological_target": "FLT3 (N841I) (Homo sapiens (Human), UniProt P36888, N841I)", "assay": "biochemical", "type": "binding", "protocol": "The liganded beads were blocked with excess biotin and washed with blocking buffer (SeaBlock (Pierce), 1% BSA, 0.05% Tween 20, 1 mM DTT) to remove unbound ligand and to reduce non-specific binding. […] Test compounds were prepared as 100× stocks in DMSO and rapidly diluted into the aqueous environment. DMSO was added to control assays lacking a test compound. […] The kinase concentration in the eluates was measured by quantitative PCR. Each kinase was tested individually against each compound. Kds were determined using eleven serial threefold dilutions."}, "CYP3A4 [2]": {"biological_target": "T1, CYP3A4", "assay": "Cyp enzyme inhibition assay in human liver microsomes, CYP3A4", "type": "in vitro ADME", "conditions": "CYP3A4, substrate testosterone", "description": "(§1) The ability of the compound I-1 to inhibit human metabolizing enzymes CYP3A4, CYP2C9, […], CYP2C19 and CYP1A2, was assessed using those enzymes found collectively in human liver microsomes. The test compound I-1 was prepared as a solution in DMSO or acetonitrile and plated in duplicate rows of a 96-well plate (Nunc) for a final assay concentration of 40 μM in 0.2% DMSO (or 2% acetonitrile) in the first column and serially diluted two-fold going down the row. A known selective inhibitor of a given CYP enzyme listed in Table 8 was selected as the appropriate positive control. For each CYP enzyme inhibition assay, an appropriate enzyme-substrate mixture was prepared to afford a final assay concentration of 75 mM KPO4/pH 7.4, 6.5 mM MgCl2, 0.25 mg/mL pooled male and female human liver microsome (CellzDirect lot HMMC-PL020) with the amounts of the appropriate substrate for each CYP enzyme assay given in Table 8. The enzyme-substrate mixture was added to columns 1 through 10 and column 11 served as a negative control with enzyme solution lacking substrate. A solution of NADPH (Calbiochem) was then added to all rows except for one where NADPH would be added after the incubation period, in order to detect NADPH-independent non-CYP-mediated metabolism. The plate was briefly vortexed and left to shake in a 37° C. water bath for 20 minutes. […]"}, "CYP2C19": {"biological_target": "CYP2C19 (Homo sapiens (Human), UniProt P33261)", "sequence (P33261 whole entry)": "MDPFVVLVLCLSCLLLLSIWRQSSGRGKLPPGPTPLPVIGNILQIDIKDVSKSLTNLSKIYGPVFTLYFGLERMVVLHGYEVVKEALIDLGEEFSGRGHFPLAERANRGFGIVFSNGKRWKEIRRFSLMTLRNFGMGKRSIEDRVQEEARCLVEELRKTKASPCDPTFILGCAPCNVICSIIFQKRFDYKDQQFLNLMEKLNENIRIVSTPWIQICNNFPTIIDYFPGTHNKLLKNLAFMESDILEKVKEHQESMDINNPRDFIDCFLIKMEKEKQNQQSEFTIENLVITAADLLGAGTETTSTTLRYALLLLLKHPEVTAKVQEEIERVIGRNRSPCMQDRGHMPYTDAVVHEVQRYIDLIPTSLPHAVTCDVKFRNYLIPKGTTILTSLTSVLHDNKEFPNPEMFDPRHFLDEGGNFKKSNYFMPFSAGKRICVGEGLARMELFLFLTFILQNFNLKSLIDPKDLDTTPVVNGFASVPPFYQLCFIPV", "assay": "Cyp enzyme inhibition assay in human liver microsomes, CYP2C19", "type": "in vitro ADME", "conditions": "CYP2C19, substrate mephenytoin", "description": "as §1"}, "CYP1A2": {"biological_target": "CYP1A2 (Homo sapiens (Human), UniProt P05177)", "sequence (P05177 whole entry)": "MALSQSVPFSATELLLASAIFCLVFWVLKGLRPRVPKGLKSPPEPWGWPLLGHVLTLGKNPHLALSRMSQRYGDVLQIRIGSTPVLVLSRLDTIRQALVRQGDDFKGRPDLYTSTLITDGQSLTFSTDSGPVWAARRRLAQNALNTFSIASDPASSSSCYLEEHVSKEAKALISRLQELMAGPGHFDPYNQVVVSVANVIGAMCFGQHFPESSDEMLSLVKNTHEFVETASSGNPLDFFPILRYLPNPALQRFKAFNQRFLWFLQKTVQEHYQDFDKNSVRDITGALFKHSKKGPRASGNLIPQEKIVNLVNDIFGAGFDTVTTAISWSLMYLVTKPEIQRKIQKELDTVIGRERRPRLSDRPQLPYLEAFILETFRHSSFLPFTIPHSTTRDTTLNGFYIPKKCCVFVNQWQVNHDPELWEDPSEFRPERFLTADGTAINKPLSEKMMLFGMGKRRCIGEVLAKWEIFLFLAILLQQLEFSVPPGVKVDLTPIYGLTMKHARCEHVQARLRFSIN", "assay": "Cyp enzyme inhibition assay in human liver microsomes, CYP1A2", "type": "in vitro ADME", "conditions": "CYP1A2, substrate phenacetin", "description": "as §1"}, "[3]": {"assay": "Pharmacokinetic study in rats, intravenous and oral", "type": "in vivo", "conditions": "rat", "description": "Rats were dosed either intravenously at 1 mg/kg dose or orally at 10 mg/kg dose with Compound I-1. Blood samples were collected over a 24 hour time-course. The plasma was analyzed for Compound I-1 and the pharmacokinetic parameters were determined.\nPre-catheterized (jugular vein), male Sprague-Dawley rats (230-300 g) obtained from Charles River, Hollister, Calif., were acclimated at the vivarium of Rabbit and Rodent Diagnostic Associates (San Diego, Calif.) for at least three days following delivery and prior to entering a study. Rats were fasted overnight before intravenous or oral dosing. For intravenous dosing, Compound I-1 was dissolved in a 3:1 PEG400:H2O (Water For Injection) solution and administered at a dose of 1 mg/kg. For oral dosing, Compound I-1 was dissolved in a 22% hydroxypropyl-β-cyclodextrin (HPBCD) solution and administered at a dose of 10 mg/kg. Blood was collected at 5 (IV only), 15, 30 min, 1, 2, 4, 6, and 24 hr postdose using K3EDTA as anticoagulant and plasma was harvested for the analysis of Compound I-1.\nPlasma samples, calibration standards and quality control samples (20 μL) were extracted with six volumes of acetonitrile containing an internal standard (25 ng/mL) and analyzed using LC-MS/MS analysis (API 3200). Sample separation was achieved on a Zorbax SB C8 column (5 μm, 4.6×50 mm) at a flow rate of 1.6 mL/min. The gradient program was from 5-95% acetonitrile in 0.05% formic acid over one minute. The mass transition from m/z 577.18 to 421.10 was monitored for Compound I-1. The internal standard mass transitions monitored were 483.0 to 317.2.\nPharmacokinetic parameters of Compound I-1 were calculated based on the plasma concentration-time profiles of each animal using the noncompartmental models in WinNonlin v5.2 (Pharsight, Mountain View, Calif.)."}, "[4]": {"assay": "Aqueous and surfactant solubility", "type": "physicochemical", "conditions": "kinetic from dmso stock, room temperature overnight", "protocol": "After equilibration at room temperature overnight the solutions were filtered and solute concentration determined by fast gradient HPLC without further dilution of the samples. […] These analytical standards were prepared from a 500 μM intermediate stock solution made by diluting 10 μl of the 10 mM sample stocks into 190 μl of 50:50 (v/v) acetonitrile/water. Aliquots of this solution were transferred in duplicate into a 96 well plate in the amounts of 0.4, 2, 4, 20, 40, and 100 μl with the volumes made up to 200 total μl with acetonitrile/water and the plate was then heat sealed with a foil sheet. Prior to sample filtration, filters were primed with 600 μl of sample to resolve potential adsorption problems. Both sample replicates were collected through the primed filter. Duplicate determinations were made in all cases."}, "[5]": {"conditions": "male, Sprague-Dawley, plasma, intravenous, 1 mg/kg"}, "[6]": {"conditions": "male, Sprague-Dawley, plasma, oral, 10 mg/kg"}}, "note": "Like-named read-outs stand apart in the source and are kept apart here.", "data": [{"compound": "CC(C)(CO)c1cc(NC(=O)Nc2ccc(-c3cn4c(n3)sc3cc(OCCN5CCOCC5)ccc34)cc2)no1", "note": "[Compound I-1, 1-[5-(2-hydroxy-1,1-dimethyl-ethyl)-isoxazol-3-yl]-3-{4-[7-(2-morpholin-4-yl-ethoxy)-benzo[d]imidazo[2,1-b]thiazol-2-yl]-phenyl}-urea]", "values": [{"measurement": "Time dependant inhibition", "setting": "CYP3A4 [1]", "result": "not a time dependant inhibitor"}, {"measurement": "Kd", "setting": "FLT3 (K663Q)", "result": 0.00069, "unit": "µM"}, {"measurement": "Kd", "setting": "FLT3 (N841I)", "result": 0.00077, "unit": "µM"}, {"measurement": "IC50", "setting": "CYP3A4 [2]", "result": "> 40", "unit": "µM"}, {"measurement": "IC50", "setting": "CYP2C19", "result": 15.5, "unit": "µM"}, {"measurement": "IC50", "setting": "CYP1A2", "result": "> 40", "unit": "µM"}, {"measurement": "AUC(0-inf)", "setting": "[3]; [5]", "result": 3.29, "unit": "µM·h"}, {"measurement": "Vd", "setting": "[3]; [5]", "result": 1.34, "unit": "L/kg"}, {"measurement": "clearance", "setting": "[3]; [5]", "result": 8.83, "unit": "mL/min/kg"}, {"measurement": "half-life", "setting": "[3]; [5]", "result": 3.4, "unit": "h"}, {"measurement": "AUC(0-inf)", "setting": "[3]; [6]", "result": 2.27, "unit": "µM·h"}, {"measurement": "Cmax", "setting": "[3]; [6]", "result": 360, "unit": "nM"}, {"measurement": "Tmax", "setting": "[3]; [6]", "result": 1.2, "unit": "h"}, {"measurement": "half-life", "setting": "[3]; [6]", "result": 3.7, "unit": "h"}, {"measurement": "bioavailability", "setting": "[3]; male, Sprague-Dawley, plasma, oral, 10 mg/kg, calculated with the dose normalized AUC0-inf IV data, read-out: F (absolute bioavailability)", "result": 6.9, "unit": "%"}, {"measurement": "T1/2", "setting": "[3]; intravenous, 1 mg/kg", "result": 3.4, "unit": "h"}, {"measurement": "solubility", "setting": "[4]; HBSS buffer with 0.05% Polysorbate 80, pH 7.4, aqueous with cosolvent or surfactant or cyclodextrin, HBSS containing 0.05% Polysorbate 80, 2.5% DMSO, read-out: Average Aqueous Solubility, 0.05% Polysorbate 80", "result": 2, "unit": "µM"}, {"measurement": "solubility", "setting": "[4]; Hank's balanced salt solution (HBSS) buffer, aqueous buffer, HBSS pH 7.4, 2.5% DMSO, read-out: Average Aqueous Solubility, pH 7.4", "result": "< 1", "unit": "µM"}]}]}
